Data on 22 molecules can be found in patent US11753373B2, “Protease inhibitors as antivirals” (priority 2021, dated 2023).

In one data set the test system is SARS-CoV-2. The data set is described as follows: Anti-viral in vitro PRNT assay in Vero E6 cells. Format: cell-based. Conditions: for EC50: read-out: anti-SARS-CoV2 (PRNT) in Vero E6 EC50.
The format of data set [1] is in vitro ADME, Human. The note with it: extraction ratio, compound at 1 uM, human liver microsomes 0.5 mg/mL. The procedure:
(§1) Metabolic stability of novel protease inhibitors was determined via liver microsomal stability assay. Human, mouse, SD rat, beagle dog or monkey liver microsomes were incubated with the test compound for 5 to 60 minutes at 37° C., and then the remaining parent compound was quantified by LC-MS/MS. Percentage of the test compound remaining, half-life (t1/2), in vitro intrinsic clearance (CLint, in vitro), in vivo intrinsic clearance (CLint, in vivo), hepatic clearance (CLh) and extraction ratio (ER) were calculated.
(§2) Procedure: The assay was done as described in Baranczewski, P. et al. (2006) Pharmacological Reports 58:453-472; Pearson, P. and Wienkers, L. (2008) Handbook of Drug Metabolism, 2nd Edition. CRC Pres, P.478; and Venkatesh, P. et al. (2007) Biol. Pharm. Bull. 30:1021-2024. 0.625 mg/mL liver microsomes solution was prepared by mixing 2325 μL 100 mM of K-phosphate buffer (pH 7.4) containing 2.5 mM of MgCl2, 1.25 mM of EDTA, and 75 μL microsomes (20 mg/mL) in a vial for each species.
(§3) Positive control compound: (±) Verapamil hydrochloride (Cat No.: V4629; Lot No.: MKBV4993V; Source: Sigma)
40 μL aliquots of the liver microsome/test compound mixture were dispensed into 96-well plate in triplicate and pre-warmed the mixture for 5 minutes at 37° C. Then, 10 μL of 5 mM NADPH solution was added to each well to initiate the reaction, and gently mixed. The samples were incubated at 37° C. with gentle shaking.
(§4) For 0-min samples, 200 μL of ACN containing internal standard was added to 40 μL of liver microsome/test compound mixture, followed by addition of 5 mM NADPH, and mixed gently.
(§5) For negative control: 40 μL of liver microsome/test compound mixture was incubated at 37° C. with gentle shaking for 60 minutes, followed by addition of 200 μL ACN containing 1% FA and internal standard and 10 μL of 5 mM NADPH, mixed gently.
(§6) All samples were centrifuged at 4° C. for 20 minutes at 4,000 rpm. Then, 100 μL of the supernatant from each sample was transferred to a new 96-well plate and 100 μL of ultrapure water containing 1% FA was added to each well, and mixed gently. Samples were analyzed by LC-MS/MS.
(§7) Data Analysis: Peak area ratio (Peak Area of test compound/Peak Area of internal standard) was used to represent the concentration of compound in each sample. The remaining percentage (% Remaining) at appointed time points was calculated versus the concentration of compound at 0 min. The Ln value of the remaining percentage was linearly fitted against the incubation time.
(§8) The half-life and clearance were calculated using the following equations:
(§9) Determined percent of the remaining test compound: % remaining=[area at tx/average areas at t0]×100 (1) % metabolized=[100−% remaining] (2)
(§10) Calculated the half-life (t1/2) using the slope (k) of the log-linear regression from the concentration of remaining parent compound versus time (min) relationship: t1/2 (min)=−ln 2/k. (3)
(§11) Clint, in vitro (mL/min/mg) Clint,in vitro=k/c,(c:Liver microsome concentration in the incubation system) (4)
(§12) Hepatic Clearance (CLh) CLh=Clint,in vivo*Hepatic Blood Flow (mL/min/kg)/(Hepatic Blood Flow (mL/min/kg)+Clint,in vivo) (6)
(§13) Extraction ratio (ER): ER=CLint,in vivo/(Qh+CLint,in vivo)*100,Qh:liver blood flow (7)
(Microsomes from liver hold many membrane-bound enzymes, among them those of drug oxidation.)

Data set [2] is classed as in vitro ADME. Conditions: extraction ratio, compound at 1 uM; for Liver Microsomal Stability (ER) SD rat: SD rat liver microsomes 0.5 mg/mL; for Liver Microsomal Stability (ER) Beagle dog: beagle dog liver microsomes 0.5 mg/mL; for Liver Microsomal Stability (ER) Mouse: mouse liver microsomes 0.5 mg/mL. The procedure: as §1, §2, §3
40 μL aliquots of the liver microsome/test compound mixture were dispensed into 96-well plate in triplicate and pre-warmed the mixture for 5 minutes at 37° C. Then, 10 μL of 5 mM NADPH solution was added to each well to initiate the reaction, and gently mixed. The samples were incubated at 37° C. with gentle shaking. (Final concentrations: compound=1 μM; liver microsomes protein=0.5 mg/mL; MgCl2=2 mM; EDTA=1 mM; ACN=0.1%; DMSO=0.05%).
as §4, §5, §6, §7, §8, §9, §10, §11, §12, §13

Where [3] appears, read: Vero E6 cells, 1000 pfu, 3 days, plaque reduction.

Like-named read-outs stand apart in the source and are kept apart here.

Turning to `COC(=O)[C@H](C[C@@H]1CCNC1=O)NC(=O)[C@H](CC(C)C)NC(=O)c1cc2ccccc2[nH]1` [Compound A-1-a, methyl (S)-2-((S)-2-(1H-indole-2-carboxamido)-4-methylpentanamido)-3-((S)-2-oxopyrrolidin-3-yl)propanoate], the “anti-SARS-CoV2 (PRNT) in Vero E6 EC50 (μM)” value (“anti-SARS-CoV2 (PRNT)” below) with SARS-CoV-2 (setting [3]) was “inactive”. Regarding `CC(C)C[C@H](NC(=O)c1cc2ccccc2[nH]1)C(=O)N[C@@H](C[C@@H]1CCNC1=O)C(=O)O` [Compound A-1-e, (2S)-2-[(2S)-2-[(1H-indol-2-yl)formamido]-4-methylpentanamido]-3-[(3S)-2-oxopyrrolidin-3-yl]propanoic acid], in data set [1], the “Liver Microsomal Stability (ER) Human” value came to 0.00. For the same molecule, in data set [2], the “Liver Microsomal Stability (ER) SD rat” value was −0.02, the “Liver Microsomal Stability (ER) Beagle dog” value is 0.02 and the “Liver Microsomal Stability (ER) Mouse” value is recorded as 0.09.

In general, EC50 refers to the concentration giving half of the maximal effect. For the molecule `O=C[C@H](C[C@@H]1CCNC1=O)NC(=O)[C@H](CC1CCCCC1)NC(=O)c1cc2ccccc2[nH]1` [Compound A-2-c], the EC50 in the data set on SARS-CoV-2 was 640 nM. For the molecule `CC(C)C[C@@H](NC(=O)c1cc2c(F)cccc2[nH]1)C(=O)N[C@H](C#N)C[C@@H]1CCNC1=O` [Compound A-3-b], in data set [1], the “Liver Microsomal Stability (ER) Human” value was found to be 0.18. In addition, in data set [2], the “Liver Microsomal Stability (ER) SD rat” value turned out to be 0.37, the “Liver Microsomal Stability (ER) Beagle dog” value is 0.06 and the “Liver Microsomal Stability (ER) Mouse” value worked out at 0.37. Regarding `CC(C)C[C@H](NC(=O)c1cc2c(F)cccc2[nH]1)C(=O)N[C@H](C=O)C[C@@H]1CCNC1=O` [Compound A-3-c], the “Liver Microsomal Stability (ER) Human” value in data set [1] is reported as 0.18. Further, the EC50 in the data set on SARS-CoV-2 (setting [3]) was determined as 310 nM. In data set [2], the “Liver Microsomal Stability (ER) SD rat” value is 0.14, the “Liver Microsomal Stability (ER) Beagle dog” value is reported as −0.02 and the “Liver Microsomal Stability (ER) Mouse” value came out at 0.14. For `COc1cccc2[nH]c(C(=O)N[C@@H](CC(C)C)C(=O)N[C@H](C=O)C[C@@H]3CCNC3=O)cc12` [Compound A-5-a], in data set [1], the “Liver Microsomal Stability (ER) Human” value is 0.10. Besides, the EC50 in the data set on SARS-CoV-2 (setting [3]) amounted to 1520 nM. Also, in data set [2], the “Liver Microsomal Stability (ER) SD rat” value is given as 0.11, the “Liver Microsomal Stability (ER) Beagle dog” value is on record as 0.05 and the “Liver Microsomal Stability (ER) Mouse” value is reported as 0.19. Take `COC(=O)[C@H](C[C@@H]1CCNC1=O)NC(=O)[C@H](CC(C)C)NC(=O)OCc1ccccc1` [Compound B-1-a, methyl (S)-2-((S)-2-(((benzyloxy)carbonyl)-amino)-4-methylpentanamido)-3-((S)-2-oxopyrrolidin-3-yl)propanoate]: in the data set on SARS-CoV-2 (setting [3]), the “anti-SARS-CoV2 (PRNT)” value was “inactive”.

For `CC(C)C[C@H](NC(=O)OCc1ccccc1)C(=O)N[C@H](C=O)C[C@@H]1CCNC1=O` [Compound B-1-b, benzyl ((S)-4-methyl-1-oxo-1-(((S)-1-oxo-3-((S)-2-oxopyrrolidin-3-yl)propan-2-yl)amino)pentan-2-yl)carbamate], the EC50 with SARS-CoV-2 (Severe acute respiratory syndrome coronavirus 2, Vero C1008, 72 h) amounted to 1130 nM. In the case of `CC(C)C[C@H](NC(=O)OCc1ccccc1)C(=O)N[C@@H](C[C@@H]1CCNC1=O)C(=O)CCl` [Compound B-1-c], in the data set on SARS-CoV-2, the EC50 was determined as 2290 nM.

With `C=CC(=O)[C@H](C[C@@H]1CCNC1=O)NC(=O)[C@H](CC(C)C)NC(=O)OCc1ccccc1` [Compound B-1-d], the “anti-SARS-CoV2 (PRNT)” value in the data set on SARS-CoV-2 is “inactive”. With `COC(=O)[C@H](C[C@@H]1CCNC1=O)NC(=O)[C@H](CC1CCCCC1)NC(=O)OCc1ccccc1` [Compound B-2-a, methyl (S)-2-((S)-2-(((benzyloxy)carbonyl)amino)-3-cyclohexylpropan-amido)-3-((S)-2-oxopyrrolidin-3-yl)propanoate], the “anti-SARS-CoV2 (PRNT)” value in the data set on SARS-CoV-2 (setting [3]) was “inactive”. With `COC(=O)[C@H](C[C@@H]1CCNC1=O)NC(=O)[C@@H]1[C@@H]2[C@H](CN1C(=O)[C@@H](NC(=O)C(F)(F)F)C(C)(C)C)C2(C)C` [Compound D-1-a, methyl (2S)-2-{[(1R,2S,5S)-3-[(2S)-3,3-dimethyl-2-(trifluoroacetamido)-butanoyl]-1,5-dihydrogenio-6,6-dimethyl-3-azabicyclo[3.1.0]hexan-2-yl]formamido}-3-[(3S)-2-oxopyrrolidin-3-yl]propanoate], the “anti-SARS-CoV2 (PRNT)” value in the data set with SARS-CoV-2 is “inactive”. `CC(C)(C)[C@H](NC(=O)C(F)(F)F)C(=O)N[C@@H](CC1CCCCC1)C(=O)N[C@H](C#N)C[C@@H]1CCNC1=O` [Compound D-4-a]: the “Liver Microsomal Stability (ER) Human” value in data set [1] turned out to be 0.46. Further, in data set [2], the “Liver Microsomal Stability (ER) SD rat” value is reported as 0.29, the “Liver Microsomal Stability (ER) Beagle dog” value stood at 0.21 and the “Liver Microsomal Stability (ER) Mouse” value turned out to be 0.72. As to `C[C@@H](C=O)NC(=O)[C@H](CC1CCCCC1)N(C(=O)OCc1ccccc1)C1CC1` [Compound E-1-b], in the data set on SARS-CoV-2, the “anti-SARS-CoV2 (PRNT)” value is “inactive”.

As to `COC(=O)[C@H](C)NC(=O)[C@@H]1[C@@H]2[C@H](CN1C(=O)[C@@H](NC(=O)C(F)(F)F)C(C)(C)C)C2(C)C` [Compound F-1-a, methyl ((1R,2S,5S)-3-((S)-3,3-dimethyl-2-(2,2,2-trifluoroacetamido)butanoyl)-6,6-dimethyl-3-azabicyclo[3.1.0]hexane-2-carbonyl)-L-alaninate], the “anti-SARS-CoV2 (PRNT)” value in the data set with SARS-CoV-2 was “inactive”.

Take `C[C@@H](C#N)NC(=O)[C@@H]1[C@@H]2[C@H](CN1C(=O)[C@@H](NC(=O)C(F)(F)F)C(C)(C)C)C2(C)C` [Compound F-1-c]: in the data set on SARS-CoV-2, the “anti-SARS-CoV2 (PRNT)” value was “inactive”. On the same count and under the same terms, with `C=CC(=O)N[C@H](C)NC(=O)[C@@H]1[C@@H]2[C@H](CN1C(=O)[C@@H](NC(=O)C(F)(F)F)C(C)(C)C)C2(C)C` [Compound F-1-d] the entry was “inactive”; with `COC(=O)[C@@H](NC(=O)[C@@H]1[C@@H]2[C@H](CN1C(=O)[C@@H](NC(=O)C(F)(F)F)C(C)(C)C)C2(C)C)C(C)C` [Compound F-2-a, methyl ((1R,2S,5S)-3-((S)-3,3-dimethyl-2-(2,2,2-trifluoroacetamido)-butanoyl)-6,6-dimethyl-3-azabicyclo[3.1.0]hexane-2-carbonyl)-L-valinate], “inactive”. Take `CC(C)[C@@H](C#N)NC(=O)[C@@H]1[C@@H]2[C@H](CN1C(=O)[C@@H](NC(=O)C(F)(F)F)C(C)(C)C)C2(C)C` [Compound F-2-c]: the “anti-SARS-CoV2 (PRNT)” value in the data set on SARS-CoV-2 was “inactive”. The same measure, in the same setting: with `C=CC(=O)N[C@@H](NC(=O)[C@@H]1[C@@H]2[C@H](CN1C(=O)[C@@H](NC(=O)C(F)(F)F)C(C)(C)C)C2(C)C)C(C)C` [Compound F-2-d] the entry was “inactive”; with `C[C@@H](C#N)NC(=O)[C@@H]1[C@@H]2[C@H](CN1C(=O)[C@@H](NC(=O)C(F)(F)F)C1CC1)C2(C)C` [Compound F-3-a], “inactive”; with `C=CC(=O)N[C@@H](NC(=O)[C@@H]1[C@@H]2[C@H](CN1C(=O)[C@@H](NC(=O)C(F)(F)F)C1CC1)C2(C)C)C(C)C` [Compound F-4-b], “inactive”.
